Legend:
[1] = tested on: wheat (Triticum aestivum) cv. Balitus; assay: Root and shoot dry weight and total chlorophyll content of wheat under drought stress conditions (Example 2); assay type: in vivo
Method: To investigate the effect of the combinations on the weight parameters, and the total content of chlorophyll, seeds of wheat (Triticum aestivum) cv. Balitus were sown in a hydroponic growing system (Araponics, Liege, Belgium) using Hoagland's solution (control). Twenty days after sowing plants (except for control plants) were sprayed by either MTU (10 μM) or by nitrogen utilization enhancers alone or with a combination of MTU (10 μM) and nitrogen utilization enhancers. The plants were grown in a glasshouse at 20-28° C. under a combination of natural and artificial light. Since the treatment (20 days after sowing), the plants received low water doses. […] The root dry weight (RDW), shoot dry weight (SDW), and total chlorophyll content (TCC) of at least 25 plants were measured at the end of the experiment—45 days after the plants had been sown. RDW and SDW were recorded after drying the plants at 70° C. for 2 days. The chlorophyll content of each plant was measured by SPAD meter reading at the end of the experiment and TCC was calculated as SPAD value per SDW.

[2] = tested on: wheat (Triticum aestivum) cv. Balitus; assay: Root and shoot dry weight and leaf nitrogen content of hydroponically grown wheat under optimal conditions (Example 1); assay type: in vivo
Method: To investigate the effect of the combinations on the weight parameters, the seeds of wheat (Triticum aestivum) cv. Balitus were sown in a hydroponic growing system (Araponics, Liege, Belgium) using Hoagland's solution (control). Twenty days after sowing, plants (except for control plants) were sprayed by aqueous solution of either MTU (10 μM) or by a nitrogen utilization enhancer alone or by a combination of MTU (10 μM) with the nitrogen utilization enhancer. The plants were grown in the Czech Republic in a glasshouse at 16-25° C. under natural and artificial light during the winter period. The root dry weight (RDW), shoot dry weight (SDW) and the nitrogen content in the leaves of at least 30 plants were measured 45 days after the plants had been sown. RDW and SDW were recorded after drying the plants at 70° C. for 2 days.

Row | Compound | RDW % of control ([1]; concentration 100 mg/L) | RDW (root dry weight) ([1]; concentration 100 mg/L) [g] | SDW % of control ([1]; concentration 100 mg/L) | SDW (shoot dry weight) ([1]; concentration 100 mg/L) [g] | RDW % of control ([1]; concentration 250 mg/L) | RDW (root dry weight) ([1]; concentration 250 mg/L) [g] | SDW % of control ([1]; concentration 250 mg/L) | SDW (shoot dry weight) ([1]; concentration 250 mg/L) [g] | RDW % of control ([2]; concentration 100 mg/L) | RDW (root dry weight) ([2]; concentration 100 mg/L) [g] | SDW % of control ([2]; concentration 100 mg/L) | SDW (shoot dry weight) ([2]; concentration 100 mg/L) [g] | Nitrogen content in the leaves ([2]; concentration 250 mg/L) [weight %] | RDW % of control ([2]; concentration 250 mg/L) | RDW (root dry weight) ([2]; concentration 250 mg/L) [g] | SDW % of control ([2]; concentration 250 mg/L) | SDW (shoot dry weight) ([2]; concentration 250 mg/L) [g] | other results
1 | O=C(O)CCC(=O)C(=O)O [2-oxoglutarate] | +11.9% | 0.75 | +10.7% | 1.35 | +16.4% | 0.78 | +14.8% | 1.4 | +8.8% | 0.87 | +5.3% | 1.60 | 4.67 | +13.8% | 0.91 | +8.6% | 1.65 | TCC % (total chlorophyll content) ([1]; concentration 100 mg/L): 107%; TCC % (total chlorophyll content) ([1]; concentration 250 mg/L): 112%
2 | N[C@@H](CC(=O)O)C(=O)O [Aspartic acid, aspartic acid] | – | – | – | – | +14.9% | 0.77 | +3.3% | 1.26 | – | – | – | – | 4.53 | +15.0% | 0.92 | −1.3% | 1.50 | –
3 | CCCCCC(=O)OCCN(CC)CC [DA6, diethyl aminoethyl hexanoate] | – | – | – | – | – | – | – | – | – | – | – | – | – | – | – | – | – | RDW % of control ([1]; concentration 20 mg/L): +13.4%; RDW (root dry weight) ([1]; concentration 20 mg/L): 0.76 g; SDW % of control ([1]; concentration 20 mg/L): +6.6%; SDW (shoot dry weight) ([1]; concentration 20 mg/L): 1.3 g; TCC % (total chlorophyll content) ([1]; concentration 20 mg/L): 110%; Nitrogen content in the leaves ([2]; concentration 25 mg/L): 4.53 weight %; RDW % of control ([2]; concentration 25 mg/L): +8.8%; RDW (root dry weight) ([2]; concentration 25 mg/L): 0.87 g; SDW % of control ([2]; concentration 25 mg/L): +5.9%; SDW (shoot dry weight) ([2]; concentration 25 mg/L): 1.61 g
4 | NCCCC(=O)O [GABA, γ-aminobutyric acid] | – | – | – | – | – | – | – | – | – | – | – | – | – | – | – | – | – | Nitrogen content in the leaves ([2]; concentration 200 mg/L): 4.82 weight %; RDW % of control ([2]; concentration 200 mg/L): +5.0%; RDW (root dry weight) ([2]; concentration 200 mg/L): 0.84 g; SDW % of control ([2]; concentration 200 mg/L): +4.6%; SDW (shoot dry weight) ([2]; concentration 200 mg/L): 1.59 g
5 | N[C@@H](CCC(=O)O)C(=O)O [Glutamic acid, glutamic acid] | +9.0% | 0.73 | +4.1% | 1.27 | +19.4% | 0.8 | +3.3% | 1.26 | +6.3% | 0.85 | +2.0% | 1.55 | 4.56 | +15.0% | 0.92 | +3.9% | 1.58 | –
6 | C[N+](C)(C)CC(=O)[O-] [Glycine betaine, glycine betaine] | – | – | – | – | – | – | – | – | – | – | – | – | – | – | – | – | – | RDW % of control ([1]; concentration 5 g/L): +4.5%; RDW (root dry weight) ([1]; concentration 5 g/L): 0.70 g; SDW % of control ([1]; concentration 5 g/L): +7.4%; SDW (shoot dry weight) ([1]; concentration 5 g/L): 1.31 g; TCC % (total chlorophyll content) ([1]; concentration 5 g/L): 110%
7 | CC(=O)N1CSCC1C(=O)O (centres unmarked) [NATCA, N-acetyl thiazolidine 4-carboxylic acid] | +11.9% | 0.75 | +9.8% | 1.34 | – | – | – | – | +12.5% | 0.9 | +7.2% | 1.63 | – | – | – | – | – | Nitrogen content in the leaves ([2]; concentration 100 mg/L): 4.77 weight %
8 | O=C(O)[C@@H]1CCCN1 [Proline, proline] | – | – | – | – | +7.5% | 0.72 | +4.9% | 1.28 | – | – | – | – | 4.69 | +7.5% | 0.86 | +3.3% | 1.57 | –
9 | OP(O)O [[PO3]^3−, phosphite] | – | – | – | – | – | – | – | – | – | – | – | – | – | – | – | – | – | RDW % of control ([1]; concentration 600 mg/L): +16.4%; RDW (root dry weight) ([1]; concentration 600 mg/L): 0.78 g; SDW % of control ([1]; concentration 600 mg/L): +8.2%; SDW (shoot dry weight) ([1]; concentration 600 mg/L): 1.32 g; TCC % (total chlorophyll content) ([1]; concentration 600 mg/L): 105%; Nitrogen content in the leaves ([2]; concentration 600 mg/L): 4.81 weight %; RDW % of control ([2]; concentration 600 mg/L): +18.8%; RDW (root dry weight) ([2]; concentration 600 mg/L): 0.95 g; SDW % of control ([2]; concentration 600 mg/L): +14.5%; SDW (shoot dry weight) ([2]; concentration 600 mg/L): 1.74 g
10 | NC(=O)CC[C@H](N)C(=O)O [glutamine] | +10.4% | 0.74 | +7.4% | 1.31 | +16.4% | 0.78 | +11.5% | 1.36 | +10.0% | 0.88 | +5.3% | 1.60 | 4.59 | +12.5% | 0.90 | +6.6% | 1.62 | –
11 | NCC(=O)O [glycine] | +7.5% | 0.72 | +5.7% | 1.29 | +13.4% | 0.76 | +11.5% | 1.36 | +5.0% | 0.84 | +5.9% | 1.61 | 4.64 | +7.5% | 0.86 | +8.6% | 1.65 | –
12 | poly-γ-(glutamic acid) [γ-PGA] | – | – | – | – | +9.0% | 0.73 | +2.5% | 1.25 | – | – | – | – | 4.74 | +5.0% | 0.84 | +6.6% | 1.62 | TCC % (total chlorophyll content) ([1]; concentration 250 mg/L): 112%

— US20250143306A1, “COMBINATION FOR IMPROVING PLANT GROWTH AND/OR YIELD, FORMULATION AND METHOD FOR INCREASING PLANT GROWTH, STRESS RESISTANCE, AND YIELDS, AND USE THEREOF” (INSTITUTE OF EXPERIMENTAL BOTANY CAS CR, V.V.I., priority 2022, published 2025)
